Laboratory results: patent US8680290B2, “Isoxazoline derivatives and their use as herbicides” (Syngenta Limited, priority 2004, dated 2014)

Test system: Monocotyledonous and dicotyledonous test plants
Assay: Example B1 herbicidal action, application pre-emergence (Table B1b)
Format: in vivo
Conditions: 250 g/ha, evaluated after 4 weeks
Protocol: Monocotyledonous and dicotyledonous test plants were sown in seed trays in standard soil. Immediately after sowing (pre-emergence) or after 8 to 9 days cultivation (post-emergence), the test compounds were applied by spraying in the form of an aqueous solution derived from the formulation of the technical active ingredient in 0.6 ml acetone and 45 ml formulation solution containing 10.6% Emulsogen EL (CAS RN 61791-12-6), 42.2% N-methylpyrrolidone, 42.2% dipropylene glycol monomethyl ether (CAS RN 34590-94-8) and 0.2% X-77 (CAS RN 11097-66-8). The test plants were then grown in a greenhouse under optimum conditions. After a test duration of 3 weeks (post-emergence) or 4 weeks (pre-emergence), the test was evaluated (10=total damage to plant, 0=no damage to plant).

SMILES	herbicidal action (damage rating 0-10), Amaranthus	herbicidal action (damage rating 0-10), Digitaria	herbicidal action (damage rating 0-10), Panicum	herbicidal action (damage rating 0-10), Setaria	herbicidal action (damage rating 0-10), Sida
CC1(C)CC(S(=O)(=O)C(F)(Cl)c2ccccc2F)=NO1 (racemic) [1.73]	10	10	10	10	8
CC1(C)CC(S(=O)(=O)C(Br)c2ccccc2OC(F)F)=NO1 (racemic) [1.78]	10	10	10	10	2
CC1(C)CC(S(=O)(=O)C(Br)c2ccccc2)=NO1 (racemic) [1.81]	9	6	8	5	0
CC1(C)CC(S(=O)(=O)C(Br)c2ccccc2F)=NO1 (racemic) [1.82]	10	9	10	9	0
COc1cc(OC)cc(C(Br)S(=O)(=O)C2=NOC(C)(C)C2)c1 (racemic) [1.84]	10	9	10	9	0
CC1(C)CC(S(=O)(=O)C(Cl)c2c(F)cccc2C(F)(F)F)=NO1 (racemic) [1.91]	3	10	–	9	10
CC1(C)CC(S(=O)(=O)C(Cn2ccnc2)c2c(F)cccc2F)=NO1 (racemic) [Compound No. 1.87]	3	7	5	7	0
CC1(C)CC(S(=O)(=O)C(Cn2cncn2)c2c(F)cccc2F)=NO1 (racemic) [Compound No. 1.90]	4	4	0	0	5
CC1(C)CC([S+]([O-])C(Cl)c2c(F)cccc2Cl)=NO1 (single isomer, unassigned) [1.33]	0	8	10	7	0
CCC(Cl)(c1c(F)cccc1F)S(=O)(=O)C1=NOC(C)(C)C1 (centres unmarked) [1.16]	0	4	5	4	0
CC1(C)CC(S(=O)(=O)C(Br)(Br)c2c(F)cccc2F)=NO1 [1.50]	10	9	10	10	7
COc1ccccc1C(Br)S(=O)(=O)C1=NOC(C)(C)C1 (centres unmarked) [1.101]	9	8	8	8	0
CC1(C)CC(S(=O)(=O)C(Br)c2cc(F)cc3c2OCOC3)=NO1 (centres unmarked) [1.103]	3	9	9	5	0
CC1(C)CC(S(=O)(=O)C(F)c2cc(F)cc3c2OCOC3)=NO1 (centres unmarked) [1.106]	3	7	8	6	0
CC1(C)CC(S(=O)(=O)C(Br)c2cc(F)cc(F)c2)=NO1 (centres unmarked) [1.134]	5	10	10	9	0
CC1(C)CC(S(=O)(=O)C(Br)c2cc(F)ccc2F)=NO1 (centres unmarked) [1.135]	7	10	10	9	0

SMILES	herbicidal action (damage rating 0-10), Amaranthus	herbicidal action (damage rating 0-10), Digitaria	herbicidal action (damage rating 0-10), Panicum	herbicidal action (damage rating 0-10), Setaria	herbicidal action (damage rating 0-10), Sida
CC1(C)CC([S+]([O-])C(c2c(F)cccc2F)C(F)(F)F)=NO1 (centres unmarked) [1.139]	0	8	0	7	0
COc1ccccc1C(Cl)S(=O)(=O)C1=NOC(C)(C)C1 (centres unmarked) [1.141]	5	9	9	9	0
Cc1ccc(F)c(C(Cl)S(=O)(=O)C2=NOC(C)(C)C2)c1F (centres unmarked) [1.145]	10	10	10	10	7
CC1(C)CC(S(=O)(=O)C(Br)c2ccc(F)cc2F)=NO1 (centres unmarked) [1.150]	6	10	10	9	0
CC1(C)CC(S(=O)(=O)C(Br)c2ccccc2-c2ccccc2)=NO1 (centres unmarked) [1.151]	5	0	8	7	4
Cn1nc(C(F)(F)F)c(C(C(=O)C(F)F)S(=O)(=O)C2=NOC(C)(C)C2)c1OCC(F)(F)F (centres unmarked) [2.06]	7	8	8	7	3
CC(=O)C(c1c(C(F)(F)F)nn(C)c1OCC(F)(F)F)S(=O)(=O)C1=NOC(C)(C)C1 (centres unmarked) [2.08]	4	2	9	–	2
CCOc1c(C(F)(F)S(=O)(=O)C2=NOC(C)(C)C2)c(C(F)(F)F)nn1C [2.17]	10	8	8	8	5
Cn1nc(C(F)(F)F)c(C(F)(F)S(=O)(=O)C2=NOC(C)(C)C2)c1OCC(F)F [2.21]	10	10	10	10	8
CC(=O)OC(C)=C(c1c(C(F)(F)F)nn(C)c1OCC(F)(F)F)S(=O)(=O)C1=NOC(C)(C)C1 [2.32]	7	4	7	4	0
Cc1cc(C(F)(Cl)S(=O)(=O)C2=NOC(C)(C)C2)no1 (centres unmarked) [4.01]	8	8	8	8	8
Cc1cc(C(F)S(=O)(=O)C2=NOC(C)(C)C2)no1 (centres unmarked) [4.02]	10	8	10	7	0
Cc1cc(C(F)(F)S(=O)(=O)C2=NOC(C)(C)C2)no1 [4.03]	9	10	–	10	7
CC1(C)CC(S(=O)(=O)C(CC=C(F)F)c2c(F)cccc2F)=NO1 (centres unmarked) [Compound No. 1.04]	0	7	5	2	0
CC1(C)CC(S(=O)(=O)C(C(=O)C2CC2)c2c(F)cccc2F)=NO1 (centres unmarked) [Compound No. 1.54]	0	8	8	8	0
